Data taken from ChEMBL document CHEMBL6096728, “Simultaneous Induction of Immunogenic Pyroptosis and PD-L1 Downregulation by One Single Photosensitizer for Synergistic Cancer Photoimmunotherapy” (J Med Chem, 2025).
Active and inactive are the calls of the source. No cut-off for these calls is given here.

Assays:
[1] = tested on: MDA-MB-468; assay: Downregulation of PD-L1 expression level in human MDA-MB-468 cells at 0.1 to 0.5 uM incubated for 24 hrs under light irradiation of 20 mW.cm/2 at 400 to 700nm for 10 mins by Western blot analysis; type: functional, cell-based; conditions: dose 0.1-0.5 µM
[2] = tested on: 4T1; assay: Antitumor immunity against mouse 4T1 cells implanted in BALB/c mouse model assessed as upregulation of proportion of macrophage in lymph node at 25 mg/kg, iv measured after 14 days under light irradiation of 300 mW.cm/2 at 400 to 700nm measured after 5 mins by flow cytometry analysis; type: functional, organism-based; conditions: time 14.0 day
[3] = tested on: 4T1; assay: Induction of intracellular ROS generation in mouse 4T1 cells assessed as increase in fluorescence intensity at 0.1 uM preincubated for 2 hrs followed by compound washout further incubated with DCFH-DA probe for 30 mins under light irradiation of 20 mW.cm/2 at 400 to 700nm measured after 10 mins in presence of NaN3 by flow cytometry analysis; type: functional, cell-based
[4] = tested on: MDA-MB-231; assay: Induction of pyroptosis mediated immunogenic cell death in human MDA-MB-231 cells assessed as increase in HMGB1 release at 0.5 uM incubated for 12 hrs under light irradiation of 20 mW.cm/2 at 400 to 700nm for 10 mins; type: functional, cell-based
[5] = Phototoxicity against human MDA-MB-231 cells preincubated for 2 hrs followed by light irradiation of 20 mW.cm/2 at 400 at 700nm for 24 hrs by CCK-8 method; type: functional, cell-based; conditions: MDA-MB-231, light or radiation study
[6] = Induction of singlet oxygen production in acetonitrile solution assessed as decrease in ABDA absorption under LED light irradiation at 20 mW.cm/2 measured upto 30 mins by microplate reader analysis; type: functional
[7] = tested on: 4T1; assay: Antitumor immunity against mouse 4T1 cells implanted in BALB/c mouse model assessed as increase of CD8+ T cells in lymph node at 25 mg/kg, iv measured after 14 days under light irradiation of 300 mW.cm/2 at 400 to 700nm measured after 5 mins […]; type: functional, organism-based; conditions: time 14.0 day
[8] = tested on: 4T1; assay: Antitumor immunity against mouse 4T1 cells implanted in BALB/c mouse model assessed as fold increase in CD4+ T cells in spleen at 25 mg/kg, iv measured after 14 days under light irradiation of 300 mW.cm/2 at 400 to 700nm measured after 5 mins […]; type: functional; conditions: time 14 day
[9] = tested on: 4T1; assay: Induction of cell death in mouse 4T1 cells assessed as decrease in green fluorescence at 0.5 uM incubated for 24 hrs followed by light irradiation of 20 mW.cm/2 at 400 to 700nm for 10 mins by Calcein-AM/PI staining based analysis; type: functional
[10] = tested on: MDA-MB-231; assay: Induction of cell death in human MDA-MB-231 cells assessed as decrease in green fluorescence at 0.5 uM incubated for 24 hrs followed by light irradiation of 20 mW.cm/2 at 400 to 700nm for 10 mins by Calcein-AM/PI staining based analysis; type: functional
[11] = tested on: MDA-MB-231; assay: Induction of cell death in human MDA-MB-231 cells assessed as increase in red fluorescence at 0.5 uM incubated for 24 hrs followed by light irradiation of 20 mW.cm/2 at 400 to 700nm for 10 mins by Calcein-AM/PI staining based analysis; type: functional
[12] = tested on: 4T1; assay: Antitumor immunity against mouse 4T1 cells implanted in BALB/c mouse model assessed as increase in IL1beta secretion in tumors at 25 mg/kg, iv measured after 14 days under light irradiation of 300 mW.cm/2 at 400 to 700nm measured after 5 mins by ELISA method; type: functional, organism-based; conditions: time 14.0 day
[13] = Toxicity in BALB/c mouse assessed as effect on hemoglobin at 25 mg/kg, iv measured after 14 days; type: organism-based; conditions: in vivo, 336 h, time 14 day
[14] = Phototoxicity against human MDA-MB-231 cells preincubated for 24 hrs followed by light irradiation of 20 mW.cm/2 at 400 to 700nm for 10 mins under hypoxia condition by CCK-8 method; type: functional, cell-based; conditions: MDA-MB-231, light or radiation study
[15] = tested on: 4T1; assay: Antitumor immunity against mouse 4T1 cells implanted in BALB/c mouse model assessed as increase in proportion of tumor infiltrating CD8+ T cells at 25 mg/kg, iv measured after 14 days under light irradiation of 300 mW.cm/2 at 400 to 700nm measured after 5 mins by immunofluorescence analysis; type: functional, organism-based; conditions: time 14.0 day
[16] = Drug uptake in mouse 4T1 cells assessed as increase in fluorescence intensity at 2.5 uM measured after 180 mins by flow cytometry analysis; type: ADME, cell-based; conditions: 4t1, 3 h
[17] = Toxicity in BALB/c mouse assessed as effect on kidney at 25 mg/kg, iv measured after 14 days by H and E staining based analysis; type: organism-based; conditions: in vivo, 336 h, time 14 day
[18] = tested on: MDA-MB-231; assay: Induction of pyroptosis in human MDA-MB-231 cells assessed as upregulation of GSDME-N expression level at 0.1 to 0.5 uM preincubated with compound for 12 hrs followed by light irradiation of 20 mW.cm/2 at 400 to 700nm for 10 mins by Western blot analysis; type: functional, cell-based; conditions: dose 0.1-0.5 µM
[19] = Toxicity in BALB/c mouse assessed as effect on spleen at 25 mg/kg, iv measured after 14 days under light irradiation of 300 mW.cm/2 at 400 to 700nm measured after 5 mins; type: organism-based; conditions: in vivo, 336 h, 0.7 µM, time 14 day
[20] = tested on: MDA-MB-231; assay: Induction of intracellular ROS generation in human MDA-MB-231 cells assessed as increase in fluorescence intensity at 0.1 uM preincubated for 2 hrs followed by compound washout further incubated with DCFH-DA probe for 30 mins under light irradiation of 20 mW.cm/2 at 400 to 700nm measured after 10 mins by flow cytometry analysis; type: functional, cell-based
[21] = Toxicity in BALB/c mouse assessed as change in body weight at 25 mg/kg, iv measured after 14 days under light irradiation of 300 mW.cm/2 at 400 to 700nm measured after 5 mins; type: organism-based; conditions: in vivo, 336 h, time 14 day
[22] = tested on: MDA-MB-231; assay: Induction of pyroptosis in human MDA-MB-231 cells assessed as effect on GSDMD-N expression level at 0.1 to 0.5 uM preincubated with compound for 12 hrs followed by light irradiation of 20 mW.cm/2 at 400 to 700nm for 10 mins by Western blot analysis; type: functional, cell-based; conditions: dose 0.1-0.5 µM
[23] = tested on: 4T1; assay: Antitumor immunity against mouse 4T1 cells implanted in BALB/c mouse model assessed as upregulation of proportion of dendritic cells in lymph node at 25 mg/kg, iv measured after 14 days under light irradiation of 300 mW.cm/2 at 400 to 700nm measured after 5 mins by flow cytometry analysis; type: functional, organism-based; conditions: time 14.0 day
[24] = tested on: 4T1; assay: Antitumor immunity against mouse 4T1 cells implanted in BALB/c mouse model assessed as increase in proportion of tumor infiltrating CD4+ T cells at 25 mg/kg, iv measured after 14 days under light irradiation of 300 mW.cm/2 at 400 to 700nm measured after 5 mins by immunofluorescence analysis; type: functional, organism-based; conditions: time 14.0 day
[25] = tested on: MDA-MB-231; assay: Induction of pyroptosis in human MDA-MB-231 cells assessed as formation of bubble-like protrusion on plasma membrane at 0.25 uM preincubated with compound for 12 hrs followed by light irradiation of 20 mW.cm/2 at 400 to 700nm for 10 mins by microscopy analysis; type: functional, cell-based

## O=c1cc2sc3cc(N4CCNCC4)ccc3nc-2c2ccccc12
[1]
  Activity: Active
[2]
  Activity: Active
[3]
  Activity: inactive
[4]
  Activity: Active
[5]
  IC50: 164 nM
[6]
  Activity: Active
[7]
  Activity: Active
[8]
  fold change (FC): 6.8
[9]
  Activity: Active
[10]
  Activity: Active
[11]
  Activity: Active
[12]
  Activity: Active
[13]
  Activity: Non-toxic
[14]
  IC50: 303 nM
[15]
  Activity: Active
[16]
  Drug uptake: Active
[17]
  Activity: Non-toxic
[18]
  Activity: Active
[19]
  Activity: Non-toxic
[20]
  Activity: Active
[21]
  Activity: Non-toxic
[22]
  Activity: inactive
[23]
  Activity: Active
[24]
  Activity: Active
[25]
  Activity: Active
